Where a name gives a salt, the structure may show the parent alone.
Legend:
[1] = apparent water solubility test; type: physicochemical; details: for Solubility: apparent water solubility, 25° C.±2° C., clarity observed by naked eye, 5 mg sample, max 100 mL water; for apparent water solubility: as shown in Comparative Example 1
Description: Accurately weighed 5 mg samples in a 200 mL flask which was in a water bath with temperature 25° C.±2° C., added water in a geometric fashion the flask, stirred (about 200 r/min), and observed by naked eyes to see if it was clear. Water was added every 3 mins, maximum water amount 100 mL.

[2] = storage phase stability of crystalline form at 25° C./60% relative humidity; type: physicochemical; details: 6 months of storage at 25° C./60% relative humidity

Row | SMILES | Solubility [1] [µg/mL] | apparent water solubility [1] | crystalline form after storage (phase stability) [2]
1 | Cc1cccc(-c2nn3c(c2-c2ccnc4ccc(C(N)=O)cc24)CCC3)n1 [LY2157299 Monohydrate, 2-(6-methyl-pyridin-2-yl)-3-(6-amido-quinolin-4-yl)-5,6-dihydro-4H-pyrrolo[1,2-b]pyrazole, reference compound] | <50 | less than 50 ug/mL | 
2 | Cc1cccc(-c2nn3c(c2-c2ccnc4ccc(C(N)=O)cc24)CCC3)n1 [LY2157299 succinate cocrystal form, 2-(6-methyl-pyridin-2-yl)-3-(6-amido-quinolin-4-yl)-5,6-dihydro-4H-pyrrolo[1,2-b]pyrazole] | 130 | about 130 ug/mL | remained its original crystalline form
3 | Cc1cccc(-c2nn3c(c2-c2ccnc4ccc(C(N)=O)cc24)CCC3)n1 [LY2157299 fumarate cocrystal form, 2-(6-methyl-pyridin-2-yl)-3-(6-amido-quinolin-4-yl)-5,6-dihydro-4H-pyrrolo[1,2-b]pyrazole] | 330 | about 330 ug/mL | remained its original crystalline form
